Measured values published in publication PMC3433414, “Oral Administration of the Pimelic Diphenylamide HDAC Inhibitor HDACi 4b Is Unsuitable for Chronic Inhibition of HDAC Activity in the CNS In Vivo” (PLoS ONE, 2012).
“Also recorded” adds a separate entry of the source.

Assays:
[1] = Solubility in water, formulations and DMSO; assay type: physicochemical; conditions: cyclodextrin formulation prepared without heating
[2] = Solubility in water, formulations and DMSO; assay type: physicochemical
Description: (§1) Thomas and colleagues reported that a solution of 4b at 1 mg/mL was previously obtained using this procedure. […] We therefore prepared both TFA and hydrochloride (HCl) salts of 4b to establish whether they could offer improved solubility. Neither salt form of 4b was particularly soluble in water (<1 mg/ml). […] A study of the stability of the TFA salt also raised another more worrying issue in the use of 2-hydroxypropyl-β-cyclodextrin–complexed 4b salts for potential in vivo studies. […] The 4b. TFA cyclodextrin suspension targeted at 1 mg/ml with heating gave an initial (day 1) measured value of 0.75 mg/ml total 4b, with only 0.27 mg/mL solubilised as quantified in the sample after filtration. The lower than expected initial quantification of 4b was most likely due to the TFA salt rapidly degrading upon heating. Indeed, we always found the presence of the cyclised benzimidazole conversion product, named throughout as product C1, in the salt formulations even at t = 0 after preparation. Furthermore, the suspension was not stable upon standing in the dark with gentle shaking at room temperature, with a further 28% decrease observed in parent (4b) concentration on day 7 analysis, compared to day 1.
As a consequence de novo formulation attempts were made with the stable free base form. After several trials with different excipients, we were able to reach a soluble formulation preparation of 1 mg/ml 4b in 2% N-methyl-2-pyrollidone, 18% polyethylene glycol 400, 10% solutol HS-15 and 70% (1% Lutrol F68 in water), a vehicle which we have previously used without any adverse effects in R6/2 model chronic efficacy trials, but is unlikely to be palatable to mice in drinking water. With this concentration, a single oral gavage dose will result in a maximum of 10 mg/kg dose level (assuming a maximum dose volume of […]), considerably lower than that estimated to have been used by Thomas et al (150 mg/kg day in drinking water). In an attempt to replicate the original dose level as close as possible, it became necessary to formulate the test compound in suspension. We achieved a stable homogeneous suspension of free base 4b up to 100 mg/ml in 0.5% carboxymethylcellulose (medium viscosity) in reverse osmosis deionized (RODI) water. This suspension was used to evaluate the oral pharmacokinetics of 4b in mice. […]

[3] = Chemical stability in formulation or solution; assay type: physicochemical
Description: as §1, with “TFA cyclodextrin suspension targeted at 1 mg/ml with heating gave an initial (day 1) measured value of 0.75 mg/ml total 4b, with only 0.27 mg/mL solubilised as quantified in the sample after filtration.” left out
According to Thomas et al, verification of an acute pharmacodynamic response (the reversal of transcriptional dysregulation in the R6/2 model) was achieved by the repeated once daily injection of 150 mg/kg 4b in 50∶50 DMSO: PBS for three consecutive days. […] The lack of any pharmacodynamic response predictive of central Class I HDAC inhibition when 4b was dosed orally at 150 mg/kg twice daily for 5 days confirmed this prediction.

[4] = Hepatic microsomal stability; assay type: in vitro ADME, mouse; conditions: mouse hepatic microsomes; parent 4b
Description: Incubations of test compounds (1 µM initial concentration, n = 2) were carried out with pooled hepatic microsomes (0.25 mg protein/mL in 0.1 M phosphate buffer pH 7.4). NADPH (1 mM) was added to initiate the reactions. The incubations were performed at 37°C. Samples (100 µL) were taken from the incubation at 0, 5, 10, 20 and 40 min and added to 100 µL of acetonitrile containing carbamazepine as analytical internal standard, to terminate the reaction. Samples were centrifuged and the supernatant fractions analysed by LC-MS/MS. The instrument responses (i.e. chromatographic peak heights), normalized by internal standard response were referenced to the zero time-point samples (as 100%) in order to determine the percentage of compound remaining.
Ln plots of the % remaining, for each compound, were used to determine the half-life for the microsomal incubations.
Half-life values were calculated from the relationship. [drawing 2] where λ was the slope of the Ln concentration vs time curve.
The in vitro intrinsic clearance, CLint (µL/min/mg microsomal protein), was calculated using the following formula: [drawing 3]
When quantification was required, calibration standards for parent compound and metabolites were prepared in control hepatic microsomes and extracted and analysed as described for the study samples. Quantification of parent compound or metabolite was by extrapolation from the calibration line.

Plasma stability = assay type: in vitro ADME, mouse; conditions: mouse plasma
Description: Incubations of test compound (5 µM initial concentration, n = 2) were carried out with pooled mouse plasma or BSA (45 mg/mL in 0.1 M phosphate buffered saline). The incubations were performed at 37°C. Samples (50 µL) were obtained from the incubation at 0, 10, 30, 120, 240, 360 and 1440 min, and added to 150 µL of acetonitrile containing carbamazepine as analytical internal standard to terminate the reaction. Samples were centrifuged and the supernatant fractions analysed by LC-MS/MS.
For half-life determinations, the instrument responses (peak areas) normalized for internal standard response, were referenced to the zero time-point samples (as 100%) in order to determine the percentage of compound remaining. Ln plots of the % remaining, for each compound, were used to determine the half-life for the plasma incubations. Half-life values were calculated from the relationship:-. [drawing 1] Where λ was the slope of the natural logarithmic (Ln) concentration vs time curve.
When quantification was required, calibration standards for parent compound and metabolites were prepared in control plasma and extracted and analysed as described for the study samples. Quantification of parent compound or metabolite was by extrapolation from the calibration line.

HDAC3-NcoR2 = target: T1, HDAC3-NcoR2 (Homo sapiens, UniProt O15379); assay: Two-step fluorogenic deacetylase assay, recombinant HDAC3; assay type: biochemical; conditions: standard 1 h pre-incubation conditions
T1 construct: purified recombinant human full length HDAC1 (cat# 50051), HDAC2 (cat# 50052), HDAC3-NcoR2 (cat# 50003); purchased BPS Bioscience (San Diego, CA) 50003
Description: As described, the length of compound-enzyme incubation has been reported to be critical for this class of HDAC inhibitors, where a unique time-dependent increase in affinity and subsequent potency has been observed [36]–[38]. […] To better mimic physiological conditions, our experiments were performed at 37°C as opposed to room temperature as reported in previous studies. […] To confirm that this shift was independent of the time of 4b in aqueous solution, 4b was applied immediately to the enzyme-substrate mix both after preparing in aqueous buffer, and 120 min after preparation.
To assess the biochemical and cellular potency of 4b and its conversion products/metabolites, we utilized the two-step fluorogenic assay which measures the HDAC-mediated catalytic conversion of synthetic acetylated lysine substrates. In brief, on deacetylation of the substrates by HDAC activity, a protease site is unmasked which allows subsequent trypsin-mediated cleavage and release of the highly flourescent AMC molecules in a subsequent step of the assay. The substrates used were Lys_Ac_AMC (Bachem I-1875) for HDAC3 and (Ac)Arg-Gly-Lys(Ac) (Bachem I-1925) for HDAC1 and HDAC2. The final substrates used for each enzyme assessment were carefully selected after assessing the catalytic turnover of each of these substrates against HDAC1, HDAC2 and HDAC3 respectively, and selecting the ones that performed best. To assess Class IIa enzyme activity (HDAC4, 5, 7, 9) and Class I HDAC8 activity, we used the alternative substrate Boc_Lys_TFA (Bachem I-1985), equivalent to substrate 4 of [42]. Class IIa HDACs have approximately 1000-fold less catalytic activity than Class 1 enzymes, and show only extremely low turnover of acetylated substrates due to a Tyr to His mutation in the active site. However, the relatively labile and sterically more demanding trifluoracetyl group is readily hydrolyzed by the catalytically less avid Class IIa enzymes, allowing measurement of Class IIa activity using the 2-step fluorogenic assay. Intriguingly the Boc_Lys_TFA substrate seems to show almost total selectivity for Class IIa enzymes over class I and Class IIb enzymes, with the exception of HDAC8 ([42], and internal data).
For evaluation of the class selectivity of the compounds, we assessed inhibition against purified recombinant human full length HDAC1 (cat# 50051), HDAC2 (cat# 50052), HDAC3-NcoR2 (cat# 50003) and HDAC8 (cat# 50008): as representative of Class I activity; catalytic domain HDAC4(αα 648–1057), HDAC5 (αα 657–1123; cat # 50005), HDAC7 (αα 518-end; cat # 50007) and HDAC9 (αα 604–1066; cat # 50009) activity: representing all Class IIa activity; and full length HDAC6 (cat#50006): representing Class IIb activity. With the exception of purified catalytic domain HDAC4, which was prepared for us by Emerald Biosciences (Seattle, WA), all HDAC enzymes were purchased from BPS Bioscience (San Diego, CA).
Unless otherwise stated in the text, assays were run in the following format in 384-well plates using automated liquid handling procedures. Briefly, frozen enzyme stock and compounds were diluted in assay buffer (50 mM Tris-HCl, 137 mM NaCl, 2.7 mM KCl, 1 mM MgCl2 at pH 8.0) and added to plates at concentrations sufficient to achieve a 16-point concentration-response curve from 50 µM to 1 nM at 1% DMSO final concentration, after addition of all reagents. Substrate diluted in assay buffer was then added and plates were incubated after brief shaking for 60 min at 37°C. Following incubation, a developer/stop-step was introduced to terminate the reaction and cleave the fluorescent substrate: either the addition of trypsin with 10 µM Compound 26 [44] for the Class IIa enzymes, or trypsin with 5 µM Trichostatin A (TSA) for the Class I/IIb enzymes. Plates were briefly shaken and then returned to the incubator for a further 60 min, followed by measurement of fluorescence per well (Ex 355 nm, Em 460 nm) on a Perkin Elmer EnVision. […]

[5] = tested on: endogenous Class I HDACs/HDAC6; assay: Cellular HDAC assay, Boc_Lys_Ac substrate, Jurkat E6.1 cells; assay type: cell-based; conditions: up to 50 µM; 5 h incubation
Description: Briefly, Jurkat E6.1 cells (obtained from the European Collection of Cell Cultures (ECACC)) were plated into 384 well plates at 75,000 cells/well in cellular assay buffer (RPMI without phenol red, 0.1% Fetal Bovine Serum, 10 mM HEPES, 1 mM Sodium Pyruvate). […] Fluorescent counts were read the following morning on the Perkin Elmer EnVision.
Each compound was tested in duplicate in concentration-response format on 3 separate days. […] A full dose response of reference compound was always included alongside the profiling, to ensure that assay parameters remained within acceptable limits.

HDACs = assay: Biochemical HDAC assays (whole panel); set-up: species or system human; conditions: up to 50 µM
From the text: To assess the biochemical and cellular potency of 4b and its conversion products/metabolites, we utilized the two-step fluorogenic assay which measures the HDAC-mediated catalytic conversion of synthetic acetylated lysine substrates. In brief, on deacetylation of the substrates by HDAC activity, a protease site is unmasked which allows subsequent trypsin-mediated cleavage and release of the highly flourescent AMC molecules in a subsequent step of the assay. The substrates used were Lys_Ac_AMC (Bachem I-1875) for HDAC3 and (Ac)Arg-Gly-Lys(Ac) (Bachem I-1925) for HDAC1 and HDAC2. […] However, the relatively labile and sterically more demanding trifluoracetyl group is readily hydrolyzed by the catalytically less avid Class IIa enzymes, allowing measurement of Class IIa activity using the 2-step fluorogenic assay. […]
For evaluation of the class selectivity of the compounds, we assessed inhibition against purified recombinant human full length HDAC1 (cat# 50051), HDAC2 (cat# 50052), HDAC3-NcoR2 (cat# 50003) and HDAC8 (cat# 50008): as representative of Class I activity; catalytic domain HDAC4(αα 648–1057), HDAC5 (αα 657–1123; cat # 50005), HDAC7 (αα 518-end; cat # 50007) and HDAC9 (αα 604–1066; cat # 50009) activity: representing all Class IIa activity; and full length HDAC6 (cat#50006): representing Class IIb activity. […]

FXN = tested on: FXN; set-up: method as in PMID 16921367; conditions: at the concentration tested; cited from earlier work
[6] = cyclodextrin suspension targeted at 1 mg/ml, with heating

T1 sequence (O15379 whole entry): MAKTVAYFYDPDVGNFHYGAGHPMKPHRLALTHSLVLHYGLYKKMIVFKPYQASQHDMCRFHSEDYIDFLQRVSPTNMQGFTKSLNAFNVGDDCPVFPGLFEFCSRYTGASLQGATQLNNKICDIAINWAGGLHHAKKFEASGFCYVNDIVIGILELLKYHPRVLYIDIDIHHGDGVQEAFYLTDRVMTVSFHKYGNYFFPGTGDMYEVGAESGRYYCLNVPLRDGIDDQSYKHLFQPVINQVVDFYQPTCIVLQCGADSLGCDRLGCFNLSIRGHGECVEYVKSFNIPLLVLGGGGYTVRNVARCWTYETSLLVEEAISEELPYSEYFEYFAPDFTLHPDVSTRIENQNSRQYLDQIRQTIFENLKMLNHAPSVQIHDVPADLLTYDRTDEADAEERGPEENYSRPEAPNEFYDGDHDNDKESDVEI
T1 sequence (Q9Y618 395-489 partner limits assumed): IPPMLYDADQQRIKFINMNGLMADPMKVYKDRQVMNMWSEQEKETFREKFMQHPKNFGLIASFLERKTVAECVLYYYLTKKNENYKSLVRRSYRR

Q: Which results are given for Cc1ccc(NC(=O)CCCCCC(=O)Nc2ccccc2N)cc1.O=C(O)C(F)(F)F [4b. TFA]?
A: 4b dissolved (filtrate of suspension) [1]: 0.3 mg/mL; 4b solubilised (after filtration), day 1 [2, 6]: 0.27 mg/mL; total 4b measured in suspension, day 1 [2, 6]: 0.75 mg/mL; solubility in DMSO ([2]; prepared at 1 mg/ml): soluble; solubility in water ([2]; salt forms): < 1000 µg/mL; day 7 value as % of value at day 1 ([3]; 1 mg/ml in DMSO): 59%; decrease in parent (4b) concentration, day 7 compared to day 1 ([3]; cyclodextrin suspension, dark, gentle shaking, room temperature): 28%; cyclisation to benzimidazole product in solution ([3]; eg. aqueous acetonitrile, ambient temperature, more rapidly when heated): cyclised slowly

Q: Which results are given for Nc1ccccc1NC(=O)CCCCCC(=O)O [Compound M1]?
A: share of the metabolism of parent accounted for by metabolite [4]: 42%; share of the metabolism of parent accounted for by metabolite (Plasma stability; parent 4b): 78%; IC50 (HDAC3-NcoR2): 26 µM; activity in the Class I cellular HDAC (Boc_Lys_Ac) assay [5]: totally inactive; also recorded: neither inhibits HDACs

Q: For O=C(O)CCCCCc1nc2ccccc2[nH]1 [Compound M3], which “share of the metabolism of parent accounted for by metabolite” value (Plasma stability; parent C1) is on record?
A: 80%

Q: And the “activity in the Class I cellular HDAC (Boc_Lys_Ac) assay” value [5]?
A: inactive

Q: And the “activity in the biochemical HDAC assays” value (HDACs)?
A: inactive

Q: Which “effect on FXN mRNA” value (FXN) does the source give for BML-210 [reference compound] here?
A: increase FXN mRNA without cytotoxicity
